Laboratory results from patent US7671057B2, “Therapeutic agent for type II diabetes comprising protease-inhibiting compound” (Ono Pharmaceutical Co., Ltd., priority 2004, dated 2010).
Marks after values point to notes of the source that are not given here.

Assays:
Format in all cases: in vivo, mouse
[1] = test system: KK-A^y/Ta Jcl mice; test: Blood-sugar level after single and repeated oral administration (Example 1)
Experimental: On the day of initiation of administration (Day 1 of Administration), the obese/spontaneously type II diabetic mice; KK-A^y/Ta Jcl mice (male, 6-weeks aged, n=8) were treated through individual oral administration of the Test Compound 1 (ethyl N-allyl-N—[(E)-2-methyl-3-[4-(4-amidinophenoxycarbonyl)-phenyl]propenoyl]aminoacetate/methanesulfonate) of the present invention and the Control Compound 1 (5-{4-[2-(5-ethylpyridine-2-yl)ethoxy]benzyl}-1,3-thiazolidine-2,4-dione; pioglitazone) at the daily dose of 30 mg/kg, or the control medium (0.5% CMC), and blood was drawn from each animal through the orbital venous plexus 6 hours after administration. The blood-sugar levels were measured in accordance with the enzyme electrode method by use of Antosense II (manufactured by Daikin Kogyo KK of Japan). The said test was carried out while the animals were allowed free access to food and water.
Following the above-described single administration, the repeated, once-a-day forced oral administration of each compound was performed at the same daily dose for the total period of 14 consecutive days. On Days 3 and 11, blood was drawn in the same manner as described above 6 hours after administration of each compound, followed by measurement of the blood-sugar level.
(§1) The blood-sugar, TC, TG, IRI and IRG levels and the body weight were expressed as a mean value±standard deviation as calculated for each group of animals. With reference to the significance test between the group treated through administration of the medium and each group treated through administration of the compound, the F test was effected to analyze the data and then, the Student's t-test and Aspin-Welch's t-test were used in cases where the variance between the two groups was determined to be equal and unequal, respectively. Referring to the significance level, less than 5% (p<0.05) was considered significant, and the significance level was expressed as divided into the two events of less than 1% (**: p<0.01) and less than 5% (*: p<0.05).

[2] = test system: KK-A^y/Ta Jcl mice; test: Glucose loading test after repeated administration for 14 days (Example 1)
Experimental: (§2) As from Day 14 afterwards, the animals after being fasted for 18 hours or more were loaded orally with a glucose solution (2 g/kg, 10 mL/kg), whereby the blood-sugar levels were measured before, and 120 min. after, the said glucose loading. Each of the compounds was given orally to the animals 3 hours prior to the glucose loading, and the whole blood was drawn from each of the animals under anesthesia. Each of the said blood samples was centrifuged to yield a blood plasma, and the resultant blood plasmas were all preserved under freezing in a ultra-low-temperature freezer for subsequent use in the below-described measurements.
(§3) The blood-sugar level, total cholesterol level (hereinafter referred to briefly as “TC level”) and triglyceride level (hereinafter referred to briefly as “TG level”) were detected individually in accordance with the hexokinase/G-6-PDH method, enzyme method and GPO/HDAOS method, and measured with use of Biochemical Auto-Analyzer (Model AU 400, manufactured by Olympus Co. of Japan). The plasma insulin level (hereinafter referred to briefly as “IRI level”) and the plasma glucagon level (hereinafter referred to briefly as “IRG level”) were detected individually with the ELISA method (Lebisinsulin Mouse Insulin Kit, produced by K.K. Shibayagi of Japan) and the ELISA method (YK090 Glucagon EIA Kit, produced by K.K. Yanaihara Kenkyuu-sho of Japan), followed by measurement with use of a plate reader (Immuno Mini NJ-2300, Nalge Nunc International K.K. of Japan).
as §1

[3] = Body weight after repeated administration for 14 days (Example 1); conditions: after repeated administration for 14 consecutive days
Experimental: Following the above-described single administration, the repeated, once-a-day forced oral administration of each compound was performed at the same daily dose for the total period of 14 consecutive days. […] The blood-sugar, TC, TG, IRI and IRG levels and the body weight were expressed as a mean value±standard deviation as calculated for each group of animals. With reference to the significance test between the group treated through administration of the medium and each group treated through administration of the compound, the F test was effected to analyze the data and then, the Student's t-test and Aspin-Welch's t-test were used in cases where the variance between the two groups was determined to be equal and unequal, respectively.

[4] = test system: KK-A^y/Ta Jcl mice; test: Plasma TC, TG, blood-sugar, IRI and IRG levels 3 hours subsequent to the glucose-loading test (Example 1); conditions: 3 hours subsequent to glucose-loading test
Experimental: as §2, §3, §1

[5] = repeated once-a-day oral 30 mg/kg, 6 hours after administration

C=CCN(CC(=O)OCC)C(=O)/C(C)=C/c1ccc(C(=O)Oc2ccc(C(=N)N)cc2)cc1 [Test Compound 1, ethyl N-allyl-N—[(E)-2-methyl-3-[4-(4-amidinophenoxycarbonyl)-phenyl]propenoyl]aminoacetate/methanesulfonate]
Blood-sugar level before administration ([1]; Day 1, before single oral administration of 30 mg/kg (baseline)): 443.5 ± 19.6 mg/dL | Blood-sugar lowering action (in words) ([1]; repeated administration 30 mg/kg, Days 3 and 11): blood-sugar lowering action | Blood-sugar level Day 3 [1, 5]: 205.5 ± 7.0* mg/dL | Blood-sugar level Day 11 [1, 5]: 297.4 ± 18.4 mg/dL | Blood-sugar lowering action vs control medium group (in words) ([1]; single administration 30 mg/kg, 6 hours after administration): significant blood-sugar lowering action | Blood-sugar level 6 hrs. after administration ([1]; single oral administration, 30 mg/kg): 263.5 ± 11.0* mg/dL | Blood-sugar level before glucose loading ([2]; after 14 days 30 mg/kg p.o., fasted, compound 3 hours prior to loading): 155.0 ± 5.2 mg/dL | Blood-sugar level 120 Min. after glucose loading ([2]; after 14 days 30 mg/kg p.o., glucose 2 g/kg orally): 235.0 ± 5.9* mg/dL | Blood-sugar lowering action in the glucose loading test vs medium control group (in words) ([2]; after repeated administration for 14 consecutive days): significant blood-sugar lowering action | Effect on impaired glucose tolerance (in words) ([2]; repeated forced oral administration, spontaneously diabetic mice): ameliorated impaired glucose tolerance | Effect on mouse body-weight vs control medium group (in words) [3]: did not show any changes in the mouse body-weight | Body weight ([3]; 30 mg/kg p.o.): 29.3 ± 0.3 g | Effect on IRG level (in words) ([4]; after 14 days): a decrease in the IRG level | Effect on IRI level (in words) ([4]; after 14 days): an increase in the IRI level | Effect on TC level (in words) ([4]; after 14 days): decreases | Effect on TG level (in words) ([4]; after 14 days): decreases | Effect on blood-sugar level (in words) ([4]; after 14 days): a decrease in the blood-sugar level | Blood-sugar level ([4]; after 14 days 30 mg/kg p.o.): 251.0 ± 7.2 mg/dL | IRG (plasma glucagon level) ([4]; after 14 days 30 mg/kg p.o.): 411 ± 31.5 pg/mL | IRI (plasma insulin level) ([4]; after 14 days 30 mg/kg p.o.): 1.74 ± 0.17 ng/mL | TC ([4]; after 14 days 30 mg/kg p.o.): 99.2 ± 3.6 mg/dL | TG ([4]; after 14 days 30 mg/kg p.o.): 81.4 ± 7.1 mg/dL
